Test results: article PMC3745399, “An NO Donor Approach to Neuroprotective and Procognitive Estrogen Therapy Overcomes Loss of NO Synthase Function and Potentially Thrombotic Risk” (PLoS ONE, 2013)

Columns and labels:
[1] = tested on: hippocampal slices from 16-month old male 3×Tg mice; assay: LTP in CA1 of hippocampal slices after theta burst stimulation; set-up: species or system mouse; details: hippocampal slices from C57Bl/6 mice; 100 nM; absence of DMA
Experimental: LTP in the CA1 field of the hippocampus is a well-studied cellular model for learning and memory. […] At 16 months, an advanced age at which Alzheimer's-like neuropathology is well developed in these animals, studies on LTP have not previously been reported. Nevertheless, we observed a robust, reproducible deficit in LTP in these aged transgenic mice, with field excitatory post-synaptic potentials (fEPSP) showing an end fEPSP of 97.0±6.4% of baseline at 45 min post-TBS, compared to 134.7±10.3% observed in the wild type (WT) transgenic background controls (Fig. 3A,B).
Figure 3 Reversal of LTP deficit in aged 3×Tg mice by SERMs is GPR30 dependent. LTP was measured after TBS in the CA1 region of hippocampal sections from 16 month male 3×Tg mice or WT controls. Test compounds (SERMs 100 nM; G15 100 nM) were added 30 min prior to TBS. […] (C) Secondary analysis of theta bursts indicate action both during induction and stabilization of LTP, through a GPR30 dependent mechanism.
All experiments used 16-month old male 3×Tg transgenic or age-matched WT background controls. For electrophysiology, mice were rapidly decapitated, and brains were removed into an ice-cold aCSF solution (in mM: NaCl 124, KCl 3.0, KH2PO4 1.25, NaHCO3 25.7, D-glucose 10, L-ascorbate 2.0, MgSO4 2.5, and CaCl2 3.3) and sectioned on a tissue chopper into 400 µm sections. Slices were transported to a 37°C solution of aCSF, continuously bubbled with 95% O2/5% CO2, and allowed to recover at least 60 min before experimentation. After placement of a stimulation electrode in the Schaffer commissural fibers and recording electrodes with 2 M NaCl solution into the stratum radiatum of the CA1 area, stimulus intensity was set to evoke submaximal fEPSP and continuously monitored at 20 s intervals for at least 15 min to establish a stable baseline. SERMs (100 nM) and G15 (100 nM) were prepared fresh in perfusate and started at least 30 min before LTP induction to reach a new baseline after enhancement of basal synaptic transmission was observed. […] Resulting fEPSP was monitored at 20 s intervals for ∼60 min post TBS.

isolated rings of aortae = assay: Aortic ring relaxation; set-up: species or system rat; details: for EC50: Rattus norvegicus, intact aortic rings contracted with phenylepinephrine, mean, S.D., read-out: EC50 for relaxation
Experimental: Isolated rings of aortae from male Sprague-Dawley rats (250–300 g) were prepared for isometric tension measurements and were equilibrated for 1 h at an optimal resting tension of 10 mN. Tissues were contracted submaximally with 0.3 µM phenylepinephrine, and after 10–15 m cumulative concentration-response curves for SERMs (0.01–30 µM) were obtained. Some aortic ring preparations were denuded of the endothelium, or were treated with 100 µM L-NAME, prior to assessment of SERM-induced relaxation responses.

SMILES | effect on LTP, compound alone [1] | EC50 (isolated rings of aortae) | maximal relaxation response, comparison (isolated rings of aortae; intact aortic rings) | efficacy (maximal relaxation) (isolated rings of aortae; intact aortic rings)
Brc1cc2c(cc1[C@@H]1Nc3ccccc3[C@@H]3C=CC[C@@H]31)OCO2 [G15] | without effect |  |  | 
COc1ccc(-c2sc3cc(O)ccc3c2Oc2ccc(OCCN3CCCCC3)cc2)cc1 [arzoxifene, Arzoxifene] |  | 3.3 ± 2.5 µM | significantly less than those for DMA and raloxifene | 
O=C(c1ccc(OCCN2CCCCC2)cc1)c1c(-c2ccc(O)cc2)sc2cc(O)ccc12 [raloxifene, Raloxifene] |  | 4 ± 2.9 µM |  | ~100 % relaxation
